Test results published in US6916852B2, “Method for regulation of microvascular tone” (University of Tennessee Research Foundation, priority 2003, dated 2005).
Where two headings read alike, the source gives them in different places.

Columns and labels:
[1] = cited from earlier work; for changes in blood pressure or renal function (Dilger): therapeutic doses for 15 days, healthy young or elderly subjects
cremaster arterioles = test: Intravital microscopy of cremaster muscle arterioles; type: in vivo, C57-BL mice
Method: Male C57-BL mice age 7-8 weeks and weighing approximately 20 grams are anesthetized with an intramuscular injection of 100 to 150 microliters of a mixture of ketamine and xylazine (87 mg ketamine and 13 mg xylazine per ml) based on the weight of the individual animal. The body temperature was maintained at about 37° C. by convective heating. The animal is supinated, a midline incision is made in the ventrocervical region, and the underlying tissues are bisected laterally to expose the trachea. A tracheotomy is performed and the animal is intubated directly with PE50 tubing to facilitate ventilation. The wound is then closed.
The left rear limb is incised to expose the femoral neurovascular bundle and the femoral vein is isolated and catheterized with PE10 tubing attached to a syringe containing normal saline. The animal is then placed on a specially designed surgery board and the right testicle within the scrotum is oriented over a translumination observation window contained in the surgery board. The scrotum is irrigated with warmed (about 37° C.) physiological saline (4.3 mM NaHCO3, 126.4 mM NaCl, 0.9 mM KCl, 0.4 mM CaCl2, 0.2 mM MgSO4). The scrotum is incised medially and the underlying fascia is bluntly dissected to expose the testicle. The apical portion of the cremaster muscle is pinned distally on the surgery board and the cremaster muscle is incised along its long axis to expose the testicle. The testicle is then gently forced back into the inguinal canal, allowing the cremaster muscle to be pinned evenly around the translumination window.
(§1) All experiments are carried out using an industrial grade microscope (Nikon MM-11) with two light sources, bright field (OptiQuip 75 W xenon) and fluorescent (Nikon 150 W mercury). The primary camera assembly has a chilled charged coupled device (CCD) and controller (Hamamastu C5985). The secondary camera assembly has a CCD camera (MTI CCD72) in conjunction with an intensifier (MTI […]). Experiments are viewed on a video monitor and recorded on a digital video recorder for off-line processing.
The prepared animal, as described above in Examples 1 and 2, is placed on the stage of the microscope on the surgery board with the translumination window. Exposed tissues are irrigated with warmed physiological saline through which a N2/CO2 (95%/5%) mixture is bubbled. The tissue is allowed to equilibrate until normal blood flow is observed or perfusate flow stabilizes, during which time the tissue is scanned at 1-X for A1-A4 arterioles. The arterioles are then tested for physiological tone by the topical administration of 0.1 mM adenosine (positive control).
(§2) After the arteriole returns to resting diameter (about 10 minutes) the tissue is treated topically with test chemical drugs or the drugs are administered systemically and the responses of the arterioles are viewed at 20× magnification. Topical treatment is by directly applying a vehicle solution (1:1:18 stepantex:ethanol:saline) or a drug plus vehicle solution. Systemic treatments in the whole animal are administered through the femoral vein catheter. The arteriole is video recorded during the entire procedure for off-line analysis. The blood pressure is monitored throughout the procedure utilizing a 1.4 F (0.56 mm) Millar catheter pressure transducer inserted into the left ventricle via the aorta. Systolic and diastolic blood pressure, and heart rate are recorded. Drug dosing regimens for the animals are based on literature values or values experimentally determined via drug titration curves on a mg/kg basis.
The video images of Example 3 are analyzed off-line by first converting the digital AVI files into digital image files followed by analysis using MetaMorph software (Universal Imaging Co.) on a Dell Optiplex GX-1. Calibration of the software is done using a micrometer slide and measurements are defined in micrometers/pixel. […]

cannabinoid receptors = details: cited from earlier work; for effect on blood pressure, intra-arterially administered (Adams): intra-arterial; for effect on blood pressure, intravenously administered (Adams): intravenous
mesenteric arterioles = test: Intravital microscopy of mesenteric arterioles; type: in vivo, C57-BL mice; details: topical
Method: Animals as described in Example 1 are prepared for surgery as described in Example 1. The animal is supinated on the surgery board so that the ventral portion of the animal faces the observation window. Upon irrigation with warmed physiological saline, a midline incision is made through the linea alba. A loop of small intestine from the lower duodenal segment is extracted and pinned around the observation window, with the pins passing through the proximal mesentery and not through the intestine proper.
as §1, with “processing. […]” for “processing.”
as §2, with “Topical treatment is by directly applying a vehicle solution (1:1:18 stepantex:ethanol:saline) or a drug plus vehicle solution. Systemic treatments in the whole animal are administered through the femoral vein catheter.” left out
The video images of Example 3 are analyzed off-line by first converting the digital AVI files into digital image files followed by analysis using MetaMorph software (Universal Imaging Co.) on a Dell Optiplex GX-1. […]
Data analysis is carried out using GraphPad, Prism software. […] Time course curves are fit using non-linear regression from which the rate of vessel constriction or dilation is calculated. […]

[2] = rats subsequently bled; doubled from about 30 minutes; cited from earlier work
[3] = systemically administered, 2 mg/kg NS-398

## CS(=O)(=O)c1ccc(C2=C(c3ccccc3)C(=O)OC2)cc1 [rofecoxib]
[1]; in vivo
  effect on blood pressure (Johnson): found to elevate blood pressure

## Nc1ncnc2c1ncn2[C@@H]1O[C@H](CO)[C@@H](O)[C@H]1O [adenosine]
Cremaster arterioles; topical administration of adenosine, cremaster arteriole
  change in arteriole diameter (FIG. 1B): Dilation of the arteriole

## CCCCC/C=C\C/C=C\C/C=C\C/C=C\CCCC(=O)NCCO [ANA, arachidonyl ethanolamide]
Cannabinoid receptors; in vivo
  effect on blood pressure (Kunos, U.S. Pat. No. 5,939,429): causes hypotension
Cremaster arterioles; systemically administered, by about 200 seconds post-administration
  change in cremaster arteriolar diameter (FIG. 5B): causes a dilatation of cremaster arterioles
Cremaster arterioles; topically administered, by about 200 seconds post-administration
  change in cremaster arteriolar diameter (FIG. 5A): causes a dilatation of cremaster arterioles

## O=C(O)Cc1ccccc1Nc1c(Cl)cccc1Cl [diclofenac]
[1]
  changes in blood pressure or renal function (Dilger): not associated with significant changes in blood pressure or renal function

## CCCCCc1cc(O)c2c(c1)OC(C)(C)[C@@H]1CCC(C)=C[C@@H]21 [Δ^9-tetrahydrocannabinol]
Cannabinoid receptors
  effect on blood pressure, intra-arterially administered (Adams): produced an increase in blood pressure indicative of vasoconstriction
  effect on blood pressure, intravenously administered (Adams): caused decreases in blood pressure

## Cc1ccc(-c2cc(C(F)(F)F)nn2-c2ccc(S(N)(=O)=O)cc2)cc1 [celecoxib]
[1]; patients, administered for six weeks
  effect on blood pressure (Johnson): inconclusive
[1]
  changes in blood pressure or renal function (Dilger): not associated with significant changes in blood pressure or renal function

## CS(=O)(=O)Nc1ccc([N+](=O)[O-])cc1OC1CCCCC1 [NS-398, N-(2-cyclohexyloxy-4-nitrophenyl) methane sulphonamide]
Cremaster arterioles; [3]
  initial increase in arteriolar diameter (FIG. 2): ~8%
  time to return to baseline diameter (FIG. 2): ≤ 3 min

## CCCCCc1cc(O)c2c(c1)OC(C)(C)[C@@H]1CC=C(C)C[C@@H]21 [THC, Δ^8-tetrahydrocannabinol]
Cannabinoid receptors
  effect on blood pressure, intra-arterially administered (Adams): produced an increase in blood pressure indicative of vasoconstriction
  effect on blood pressure, intravenously administered (Adams): transient increase in blood pressure that lasted only about one minute and that was followed by a more prolonged hypotensive response
Cannabinoid receptors; listed as Δ^8-tetrahydrocannabinol
  effect on blood pressure, intravenously administered (Adams): caused decreases in blood pressure
Cremaster arterioles; systemic, 12 mg/kg THC alone
  time post-administration of return to baseline diameter (FIG. 3B): about 30 seconds
Cremaster arterioles; systemic, initial 100 seconds
  initial mild constriction of arterioles (FIG. 3B): about 15%
Cremaster arterioles; topical
  response of cremaster arterioles to topical application (FIG. 3A): mirrors that of the response to systemic administration of THC
Mesenteric arterioles
  duration of initial brief constriction (FIG. 4): less than 5 seconds
  response of mesenteric arterioles (FIG. 4): biphasic response
  time post administration of return to baseline (FIG. 4): about 100 seconds
[2]
  survival time (Wagner): ~60 min

## CCCCCCC(C)(C)c1cc(O)c2c(c1)OC(C)(C)[C@@H]1CC=C(CO)C[C@@H]21 [HU-210]
[2]
  survival time (Wagner): ~60 min
